Columns and labels:
[1] = test system: rabbit serum obtained by immunizing a rabbit with the SARS-CoV strain Frankfurt 1; type: binding; design: Binding of a rabbit serum to linear peptides / Binding of a rabbit serum to looped peptides / Rabbit serum linear peptides / Rabbit serum looped peptides / Binding of a rabbit serum to linear peptides of protein N of SARS-CoV Urbani (Rabbit serum linear peptides) / Binding of a rabbit serum to looped/cyclic peptides of protein N of SARS-CoV Urbani (Rabbit serum looped peptides): unit not given here
[2] = test system: control sera (pooled serum of ten healthy LUMC hospital workers; commercial negative donor pooled serum from the Dutch bloodbank); type: binding, human; design: Binding of Control serum LUMC to linear peptides / Binding of Control serum Blood-bank to linear peptides / Binding of Control serum LUMC to looped peptides / Binding of Control Serum Blood-Bank to Looped peptides / Binding of Control serum LUMC to linear peptides of the protein M of SARS-CoV Urbani / Binding of Control serum Blood-bank to linear peptides of the protein M of SARS-CoV Urbani / Binding of Control serum LUMC to looped peptides of the protein M of SARS-CoV Urbani / Binding of Control Serum Blood-Bank to Looped peptides of the protein M of SARS-CoV Urbani: unit not given here
[3] = test system: antibodies in sera from SARS patients (sera 1a, 1b, 2, 6, 37, 62, London, SARS-yellow, SARS-green); type: binding, human; design: Binding of serum 6 to linear peptides of protein X1 of SARS-CoV Urbani / Binding of serum 37 to linear peptides of protein X1 of SARS-CoV Urbani / Binding of serum 6 to looped/cyclic peptide (PEPSCAN-ELISA) / Binding of serum 37 to looped/cyclic peptide (PEPSCAN-ELISA) / Binding of serum 37 to looped/cyclic peptides of protein X1 of SARS-CoV Urbani / Binding of serum 6 to linear peptides of protein X2 / Binding of serum 37 to linear peptides of protein X2 / Binding of serum 37 to looped/cyclic peptides of protein X2 of SARS-CoV Urbani / Binding of serum 6 to linear peptides of protein M of SARS-CoV Urbani / Binding of serum 37 to linear peptides of protein M of SARS-CoV Urbani / Binding of serum 6 to looped/cyclic peptides of protein M of SARS-CoV Urbani / Binding of serum 37 to looped/cyclic peptides of protein M of SARS-CoV Urbani / Binding of serum 6 to linear peptides of protein X3 of SARS-CoV Urbani / Binding of serum 37 to linear peptides of protein X3 of SARS-CoV Urbani / Binding of serum 37 to looped/cyclic peptides of protein X3 of SARS-CoV Urbani / Binding of serum 6 to linear peptides of protein X4 of SARS-CoV Urbani / Binding of serum 37 to linear peptides of protein X4 of SARS-CoV Urbani / Binding of serum 37 to looped/cyclic peptides of protein X4 of SARS-CoV Urbani / Binding of serum 6 to linear peptides of protein X5 of SARS-CoV Urbani / Binding of serum 37 to linear peptides of protein X5 of SARS-CoV Urbani / Binding of serum 37 to looped/cyclic peptides of protein X5 of SARS-CoV Urbani / Binding of serum 6 to linear peptides of protein N of SARS-CoV Urbani / Binding of serum 37 to linear peptides of protein N of SARS-CoV Urbani / Binding of serum 6 to linear peptide (PEPSCAN-ELISA) / Binding of serum 1a to looped/cyclic peptides of protein N of SARS-CoV Urbani / Binding of serum 1b to looped/cyclic peptides of protein N of SARS-CoV Urbani / Binding of serum 2 to looped/cyclic peptides of protein N of SARS-CoV Urbani / Binding of serum 6 to looped/cyclic peptides of protein N of SARS-CoV Urbani / Binding of serum 37 to looped/cyclic peptides of protein N of SARS-CoV Urbani / Binding of serum 62 to looped/cyclic peptides of protein N of SARS-CoV Urbani / Binding of serum London to looped/cyclic peptides of protein N of SARS-CoV Urbani / Binding of serum SARS-green to looped/cyclic peptides of protein N of SARS-CoV Urbani: unit not given here

LYSPLFLIVAALVFL
Rabbit serum linear peptides [1]: 0.4
Rabbit serum looped peptides [1]: 0.3
Binding of Control Serum Blood-Bank to Looped peptides [2]: 0.6
Binding of Control serum Blood-bank to linear peptides [2]: 0.5
Binding of Control serum LUMC to linear peptides [2]: 0.4
Binding of Control serum LUMC to looped peptides [2]: 0.6
Binding of serum 1a to linear peptides of protein X4 of SARS-CoV Urbani [3]: 0.6
Binding of serum 1a to looped/cyclic peptides of protein X4 of SARS-CoV Urbani [3]: 0.5
Binding of serum 1b to linear peptides of protein X4 of SARS-CoV Urbani [3]: 0.4
Binding of serum 1b to looped/cyclic peptides of protein X4 of SARS-CoV Urbani [3]: 0.3
Binding of serum 2 to linear peptides of protein X4 of SARS-CoV Urbani [3]: 0.4
Binding of serum 2 to looped/cyclic peptides of protein X4 of SARS-CoV Urbani [3]: 0.4
Binding of serum 6 to linear peptides of protein X4 of SARS-CoV Urbani [3]: 0.5
Binding of serum 6 to looped/cyclic peptides of protein X4 of SARS-CoV Urbani [3]: 0.4
Binding of serum 37 to linear peptides of protein X4 of SARS-CoV Urbani [3]: 0.6
Binding of serum 37 to looped/cyclic peptides of protein X4 of SARS-CoV Urbani [3]: 0.5
Binding of serum 62 to linear peptides of protein X4 of SARS-CoV Urbani [3]: 0.6
Binding of serum 62 to looped/cyclic peptides of protein X4 of SARS-CoV Urbani [3]: 0.5
Binding of serum London to linear peptides of protein X4 of SARS-CoV Urbani [3]: 0.6
Binding of serum London to looped/cyclic peptides of protein X4 of SARS-CoV Urbani [3]: 0.2
Binding of serum SARS-green to linear peptides of protein X4 of SARS-CoV Urbani [3]: 0.5
Binding of serum SARS-green to looped/cyclic peptides of protein X4 of SARS-CoV Urbani [3]: 0.4
Binding of serum SARS-yellow to linear peptides of protein X4 of SARS-CoV Urbani [3]: 0.2
Binding of serum SARS-yellow to looped/cyclic peptides of protein X4 of SARS-CoV Urbani [3]: 0.4

QWNLVIGFLFLAWIM
Rabbit serum linear peptides [1]: 0.3
Rabbit serum looped peptides [1]: 0.3
Binding of Control Serum Blood-Bank to Looped peptides of the protein M of SARS-CoV Urbani [2]: 0.6
Binding of Control serum Blood-bank to linear peptides of the protein M of SARS-CoV Urbani [2]: 0.7
Binding of Control serum LUMC to linear peptides of the protein M of SARS-CoV Urbani [2]: 0.3
Binding of Control serum LUMC to looped peptides of the protein M of SARS-CoV Urbani [2]: 0.6
Binding of serum 1a to linear peptides of protein M of SARS-CoV Urbani [3]: 0.7
Binding of serum 1a to looped/cyclic peptides of protein M of SARS-CoV Urbani [3]: 0.7
Binding of serum 1b to linear peptides of protein M of SARS-CoV Urbani [3]: 0.4
Binding of serum 1b to looped/cyclic peptides of protein M of SARS-CoV Urbani [3]: 0.6
Binding of serum 2 to linear peptides of protein M of SARS-CoV Urbani [3]: 0.6
Binding of serum 2 to looped/cyclic peptides of protein M of SARS-CoV Urbani [3]: 0.6
Binding of serum 6 to linear peptides of protein M of SARS-CoV Urbani [3]: 0.4
Binding of serum 6 to looped/cyclic peptides of protein M of SARS-CoV Urbani [3]: 0.6
Binding of serum 37 to linear peptides of protein M of SARS-CoV Urbani [3]: 0.7
Binding of serum 37 to looped/cyclic peptides of protein M of SARS-CoV Urbani [3]: 0.5
Binding of serum 62 to linear peptides of protein M of SARS-CoV Urbani [3]: 0.8
Binding of serum 62 to looped/cyclic peptides of protein M of SARS-CoV Urbani [3]: 0.7
Binding of serum London to linear peptides of protein M of SARS-CoV Urbani [3]: 0.3
Binding of serum London to looped/cyclic peptides of protein M of SARS-CoV Urbani [3]: 0.2
Binding of serum SARS-green to linear peptides of protein M of SARS-CoV Urbani [3]: 0.2
Binding of serum SARS-green to looped/cyclic peptides of protein M of SARS-CoV Urbani [3]: 0.3
Binding of serum SARS-yellow to linear peptides of protein M of SARS-CoV Urbani [3]: 0.1
Binding of serum SARS-yellow to looped/cyclic peptides of protein M of SARS-CoV Urbani [3]: 0.8

ICNLLLLFVTIYSHL
Binding of a rabbit serum to linear peptides [1]: 0.2
Binding of a rabbit serum to looped peptides [1]: 0.5
Binding of Control Serum Blood-Bank to Looped peptides [2]: 0.5
Binding of Control serum Blood-bank to linear peptides [2]: 0.5
Binding of Control serum LUMC to linear peptides [2]: 0.5
Binding of Control serum LUMC to looped peptides [2]: 0.4
Binding of serum 1a to linear peptides of protein X1 of SARS-CoV Urbani [3]: 0.6
Binding of serum 1a to looped/cyclic peptide (PEPSCAN-ELISA) [3]: 0.4
Binding of serum 1b to linear peptides of protein X1 of SARS-CoV Urbani [3]: 0.6
Binding of serum 1b to looped/cyclic peptide (PEPSCAN-ELISA) [3]: 0.3
Binding of serum 2 to linear peptides of protein X1 of SARS-CoV Urbani [3]: 0.5
Binding of serum 2 to looped/cyclic peptide (PEPSCAN-ELISA) [3]: 0.4
Binding of serum 6 to linear peptides of protein X1 of SARS-CoV Urbani [3]: 0.4
Binding of serum 6 to looped/cyclic peptide (PEPSCAN-ELISA) [3]: 0.2
Binding of serum 37 to linear peptides of protein X1 of SARS-CoV Urbani [3]: 0.6
Binding of serum 37 to looped/cyclic peptide (PEPSCAN-ELISA) [3]: 0.4
Binding of serum 62 to linear peptides of protein X1 of SARS-CoV Urbani [3]: 0.5
Binding of serum 62 to looped/cyclic peptide (PEPSCAN-ELISA) [3]: 0.5
Binding of serum London to linear peptides of protein X1 of SARS-CoV Urbani [3]: 0.2
Binding of serum London to looped/cyclic peptide (PEPSCAN-ELISA) [3]: 0.2
Binding of serum SARS-green to linear peptides of protein X1 of SARS-CoV Urbani [3]: 0.3
Binding of serum SARS-green to looped/cyclic peptide (PEPSCAN-ELISA) [3]: 0.2
Binding of serum SARS-yellow to linear peptides of protein X1 of SARS-CoV Urbani [3]: 0.4
Binding of serum SARS-yellow to looped/cyclic peptide (PEPSCAN-ELISA) [3]: 0.4
